Data as given in patent EP1984353B1, “AURORA KINASE MODULATORS AND METHOD OF USE” (Amgen, Inc, priority 2006, dated 2007).
Like-named read-outs stand apart in the source and are kept apart here.

Columns and labels:
AuroraA-TPX2 = target: T1, AuroraA-TPX2 (Homo sapiens, UniProt O14965); experiment: AuroraA-TPX2 Homogeneous Time Resolved Fluorescent (HTRF) kinase assay; assay type: biochemical; conditions: average, read-out: AurA/TP X2_ IC50_IP (Avg)
T1 construct: 20 µL of AuroraA-TPX2 KD GST; GST
T1 sequence (O14965 133-383 limits assumed): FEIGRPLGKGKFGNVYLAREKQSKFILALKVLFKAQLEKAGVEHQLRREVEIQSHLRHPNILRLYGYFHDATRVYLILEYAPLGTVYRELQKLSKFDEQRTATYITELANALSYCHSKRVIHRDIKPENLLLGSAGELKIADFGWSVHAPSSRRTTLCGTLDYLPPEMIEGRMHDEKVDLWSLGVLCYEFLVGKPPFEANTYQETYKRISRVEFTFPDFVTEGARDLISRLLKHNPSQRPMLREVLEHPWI
T1 sequence (Q9ULW0 1-43 partner limits assumed): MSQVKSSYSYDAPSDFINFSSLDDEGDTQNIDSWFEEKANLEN
Procedure, shortened: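 HTRF read-out: europium anti-phosphoPLK antibody (0.02 nM) plus streptavidin-APC detect phosphorylated biotin-PLK after EDTA stop and overnight equilibration. Kinase step runs about 120 min with Aurora-A/TPX2, ATP and roughly 1 µM PLK peptide at pH 7.5 HEPES buffer with Mg2+ and DTT.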

AuroraB = target: T2, AuroraB (Homo sapiens, UniProt Q96GD4); experiment: AuroraB Homogeneous Time Resolved Fluorescent (HTRF) kinase assay; assay type: biochemical; conditions: average, read-out: AurB_ _IC50_IP (Avg)
T2 construct: 20 µL of AuroraB FL His; His
Procedure, shortened: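 HTRF read-out: after EDTA stop and ~60 min with europium anti-phospho-H3 antibody and streptavidin-APC, 655/615 nm ratio reports phosphorylation. Reaction: 400 pM AuroraB FL His, 23 µM ATP (at Km(app)), 0.1 µM biotin-Histone H3 peptide, 50 mM HEPES pH 7.5, MgCl/MnCl, ~90 min.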

[1] = tested on: phosphorylation of Histone H3; experiment: HeLa cell 1-hour phospho-histone assay; assay type: cell-based; conditions: Homo sapiens, HeLa, 1 h, HeLa cells, 1 hour, average, read-out: pHH3 EC50_IP (Avg)
Procedure, shortened: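 HeLa cells were exposed to serially diluted compounds for 1 hour at 37 °C (0.5% DMSO final), then fixed, permeabilized and immunostained for phospho-histone H3 (Ser10) with Hoechst counterstain. High-content imaging scored the percentage of pHH3-positive cells.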

[2] = given as numbers, unit inferred

T2 sequence (Q96GD4 whole entry): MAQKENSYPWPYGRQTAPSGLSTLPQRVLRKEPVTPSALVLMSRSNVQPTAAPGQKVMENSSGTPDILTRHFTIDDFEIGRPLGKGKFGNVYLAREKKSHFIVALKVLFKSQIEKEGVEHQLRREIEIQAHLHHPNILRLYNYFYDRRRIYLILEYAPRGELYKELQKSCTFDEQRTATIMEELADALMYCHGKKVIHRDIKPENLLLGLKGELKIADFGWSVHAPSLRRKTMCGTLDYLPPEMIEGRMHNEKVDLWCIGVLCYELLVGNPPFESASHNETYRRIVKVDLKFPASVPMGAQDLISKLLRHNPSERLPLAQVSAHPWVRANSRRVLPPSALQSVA

| IC50 (AuroraA-TPX2; [2]) [nM] | IC50 (AuroraB; [2]) [nM] | EC50 [1, 2] [nM] | IC50 (AuroraA-TPX2; given as class symbols) [nM] | IC50 (AuroraB; given as class symbols) [nM] | EC50 ([1]; given as class symbols) [nM] | Compound |
| --- | --- | --- | --- | --- | --- | --- |
| 16.4 | 68.7 | 788 | – | – | – | Nc1n[nH]cc1-c1cccnc1Oc1ccc(Nc2nnc(-c3ccccc3)c3ccsc23)cc1 [compound 304, N-(4-((3-(3-amino-1H-pyrazol-4-yl)-2-pyridinyl)oxy)phenyl)-4-phenylthieno[2,3-d]pyridazin-7-amine] |
| – | – | – | ≤ 100 | ≤ 100 | 500 to 2500 | Nc1n[nH]cc1-c1cccnc1Oc1ccc(Nc2nnc(-c3cccc(CO)c3)c3ccccc23)cc1 [compound 305, (3-(4-((4-((3-(3-amino-1H-pyrazol-4-yl)-2-pyridinyl)oxy)phenyl)amino)-1-phthalazinyl)phenyl)methanol] |
| – | – | – | ≤ 100 | ≤ 100 | 100 to 500 | Nc1n[nH]cc1-c1cccnc1Oc1ccc(Nc2nnc(-c3ccc(Cl)cc3)c3ccccc23)cc1 [compound 306, N-(4-((3-(3-amino-1H-pyrazol-4-yl)-2-pyridinyl)oxy)phenyl)-4-(4-chlorophenyl)-1-phthalazinamine] |
| – | – | – | ≤ 100 | ≤ 100 | 100 to 500 | Cc1csc(-c2nnc(Nc3ccc(Oc4ncccc4-c4c[nH]nc4N)cc3)c3ccccc23)c1 [compound 307, N-(4-((3-(3-amino-1H-pyrazol-4-yl)-2-pyridinyl)oxy)phenyl)-4-(4-methyl-2-thienyl)-1-phthalazinamine] |
| – | – | – | ≤ 100 | ≤ 100 | 500 to 2500 | Nc1n[nH]cc1-c1cccnc1Oc1ccc(Nc2nnc(-c3ccccc3)c3c2CCCC3)cc1 [compound 308, N-(4-((3-(3-amino-1H-pyrazol-4-yl)-2-pyridinyl)oxy)phenyl)-4-phenyl-5,6,7,8-tetrahydro-1-phthalazinamine] |
| – | – | – | ≤ 100 | ≤ 100 | 500 to 2500 | Cc1csc(-c2nnc(Nc3ccc(Oc4ncccc4-c4c[nH]nc4N)cc3)c3ccccc23)n1 [compound 309, N-(4-((3-(3-amino-1H-pyrazol-4-yl)-2-pyridinyl)oxy)phenyl)-4-(4-methyl-1,3-thiazol-2-yl)-1-phthalazinamine] |
| – | – | – | ≤ 100 | ≤ 100 | ≤ 100 | Cc1csc(-c2nnc(Nc3ccc(Oc4ncccc4-c4ccnc(N)n4)cc3)c3ccccc23)n1 [compound 330, N-(4-((3-(2-amino-4-pyrimidinyl)-2-pyridinyi)oxy)phenyl)-4-(4-methyl-1,3-thiazol-2-yl)-1-phthalazinamine] |
| 5.2 | 1.6 | 3.3 | – | – | – | Cc1csc(-c2nnc(Nc3ccc(Oc4ncccc4-c4ccnc(N)n4)nc3)c3ccccc23)c1 [compound 332, N-(6-((3-(2-amino-4-pyrimidinyl)-2-pyridinyl)oxy)-3-pyridinyl)-4-(4-methyl-2-thienyl)-1-phthalazinamine] |
| – | – | – | ≤ 100 | ≤ 100 | ≤ 100 | CN1CCN(CCCNc2nccc(-c3cccnc3Oc3ccc(Nc4nnc(-c5ccccc5)c5ccccc45)cc3)n2)CC1 [compound 333, N-(4-((3-(2-((3-(4-methyl-1-piperazinyl)propyl)amino)-4-pyrimidinyl)-2-pyridinyl)oxy)phenyl)-4-phenyl-1-phthalazinamine] |
| – | – | – | 100 to 500 | ≤ 100 | 500 to 2500 | Cc1cc(N2CCCCC2)nnc1Nc1ccc(Oc2ncccc2-c2ccnc(N)n2)cc1 [compound 334, N-(4-((3-(2-amino-4-pyrimidinyl)-2-pyridinyl)oxy)phenyl)-4-methyl-6-(1-piperidinyl)-3-pyridazinamine] |
| – | – | – | 500 to 2500 | 100 to 500 | 500 to 2500 | c1ccc(-c2nnc(Nc3ccc(Oc4ncccc4-c4ccnc(NCC5CCNCC5)n4)cc3)c3ccccc23)cc1 [compound 335, 4-phenyl-N-(4-((3-(2-((4-piperidinylmethyl)amino)-4-pyrimidinyl)-2-pyridinyl)oxy)phenyl)-1-phthalazinamine] |
| – | – | – | 500 to 2500 | 100 to 500 | 500 to 2500 | CN(C)Cc1ccc(-c2nnc(Nc3ccc(Oc4ncccc4-c4ccnc(N)n4)cc3)c3ccccc23)cc1 [compound 336, N-(4-((3-(2-amino-4-pyrimidinyl)-2-pyridinyl)oxy)phenyl)-4-(4-((dimethylamino)methyl)phenyl)-1-phthalazinamine] |
| – | – | – | ≤ 100 | ≤ 100 | 100 to 500 | OCC(O)CNc1nccc(-c2cccnc2Oc2ccc(Nc3nnc(-c4ccccc4)c4ccccc34)cc2)n1 (stereo not drawn) [compound 337, 3-((4-(2-((4-((4-phenyl-1-phthalazinyl)amino)phenyl)oxy)-3-pyridinyl)-2-pyrimidinyl)amino)-1,2-propanediol] |
| – | – | – | ≤ 100 | ≤ 100 | ≤ 100 | CN(C)CCCCNc1nccc(-c2cccnc2Oc2ccc(Nc3nnc(-c4ccccc4)c4ccccc34)cc2)n1 [compound 338, N,N-dimethyl-N'-(4-(2-((4-((4-phenyl-1-phthalazinyl)amino)phenyl)oxy)-3-pyridinyl)-2-pyrimidinyl)-1,4-butanediamine] |
| – | – | – | ≤ 100 | ≤ 100 | 100 to 500 | OCCCNc1nccc(-c2cccnc2Oc2ccc(Nc3nnc(-c4ccccc4)c4ccccc34)cc2)n1 [compound 339, 3-((4-(2-((4-((4-phenyl-1-phthalazinyl)amino)phenyl)oxy)-3-pyridinyl)-2-pyrimidinyl)amino)-1-propanol] |
| – | – | – | ≤ 100 | ≤ 100 | 100 to 500 | c1ccc(-c2nnc(Nc3ccc(Oc4ncccc4-c4ccnc(NCCCN5CCNCC5)n4)cc3)c3ccccc23)cc1 [compound 340, 4-phenyl-N-(4-((3-(2-((3-(1-piperazinyl)propyl)amino)-4-pyrimidinyl)-2-pyridinyl)oxy)phenyl)-1-phthalazinamine] |
| – | – | – | 100 to 500 | ≤ 100 | 100 to 500 | OCCN(CCO)CCCNc1nccc(-c2cccnc2Oc2ccc(Nc3nnc(-c4ccccc4)c4ccccc34)cc2)n1 [compound 341, 2,2'-((3-((4-(2-((4-((4-phenyl-1-phthalazinyl)amino)phenyl)oxy)-3-pyridinyl)-2-pyrimidinyl)amino)propyl)imino)diethanol] |
| – | – | – | ≤ 100 | ≤ 100 | 100 to 500 | Nc1nccc(-c2cccnc2Oc2ccc(Nc3nnc(-c4cccc(CO)c4)c4ccccc34)cc2)n1 [compound 342, (3-(4-((4-((3-(2-amino-4-pyrimidinyl)-2-pyridinyl)oxy)phenyl)amino)-1-phthalazinyl)phenyl)methanol] |
| – | – | – | ≤ 100 | ≤ 100 | ≤ 100 | Nc1nccc(-c2cccnc2Oc2ccc(Nc3nnc(-c4cccc(O)c4)c4ccccc34)cc2)n1 [compound 343, 3-(4-((4-((3-(2-amino-4-pyrimidinyl)-2-pyridinyl)oxy)phenyl)amino)-1-phthalazinyl)phenol] |
| – | – | – | ≤ 100 | ≤ 100 | ≤ 100 | Nc1nccc(-c2cccnc2Oc2ccc(Nc3nnc(-c4cccc(CCCO)c4)c4ccccc34)cc2)n1 [compound 344, 3-(3-(4-((4-((3-(2-amino-4-pyrimidinyl)-2-pyridinyl)oxy)phenyl)amino)-1-phthalazinyl)phenyl)-1-propanol] |
| – | – | – | ≤ 100 | ≤ 100 | 100 to 500 | Cc1csc(-c2nnc(Nc3ccc(Oc4ncccc4-c4ccnc(N)c4)cc3)c3ccccc23)n1 [compound 345, 2-((4-((4-(4-methyl-1,3-thiazol-2-yl)-1-phthalazinyl)amino)phenyl)oxy)-3,4'-bipyridin-2'-amine] |
